Earlier results, collected in PMC4059071 (Angewandte Chemie (International ed. in English), 2013).

Test system: Akt
Conditions: ref [13]

Cc1n[nH]c2ccc(-c3cncc(OC[C@@H](N)Cc4c[nH]c5ccccc45)c3)cc12 [A-443654]
effect on Akt phosphorylation (Thr308 and Ser473 of Akt): paradoxical hyperphosphorylation of Akt at both Thr308 and Ser473
effect on Akt protein activity after inhibitor dissociation: protein reactivation after inhibitor dissociation
